Reference: patent US10231972B2, “Combination of a 6-oxo-1,6-dihydro-pyridazine derivative having anti-cancer activity with a quinazoline derivative” (MERCK PATENT GMBH, priority 2014, dated 2019)

Key:
Format in all cases: in vivo
human H596 tumor cells = assay: Human HGF dependent H596 lung xenograft model; settings: oral daily; for median tumor volume change: day 14, female humanized HGF SCID mice, s.c. H596, 100 mg/kg pyridazinone, 30 mg/kg (from day 12 20 mg/kg) quinazoline, alone or combined; for median time until tumor progression: progression = TV change >73%, treatment up to 66 days, humanized HGF SCID mice
Description: Background: The human H596 lung model is c-Met expressing paracrine HGF/c-Met tumor model which a juxta-membran (JM) domain mutation of c-Met which lead to prolonged c-Met activation after HGF ligand binding. The model expresses […] with an activated c-Met pathway. This model carries a PI3KCA mutation (literature data).
Method: Female humanized HGF SCID mice (8-10 weeks old) where subcutaneously injected with human H596 tumor cells and were divided into treatment groups (8 animals per group) after the tumors were established.
Respective groups were administered orally with the 3-(1-{3-[5-(1-Methyl-piperidin-4-ylmethoxy)-pyrimidin-2-yl]-benzyl}-6-oxo-1,6-dihydro-pyridazin-3-yl)-benzonitrile hydrochloride hydrate (100 mg/kg) or 4-[(S)-2-azetidin-1-yl-1-(4-chloro-3-trifluoromethyl-phenyl)-ethylamino]-quinazoline-8-carboxylic acid amide (30 mg/kg, from day 12 20 mg/kg) daily in monotherapy or in combination until tumors progressed or until treatment period of 66 days. At day 14, the day when all animals in the vehicle group were still present, median tumor volume change in % were calculated. Statistical analysis has been done with two way-RM ANOVA. Median time until tumor progression under treatment has been calculated at the end of the study. Tumor progression is defined as tumor volume change >73%.

human U87-MG tumor cells = assay: Human U87-MG xenograft model; settings: oral daily; for median tumor volume (TV) change: day 12, female CD-1 nude mice, s.c. U87-MG, 100 mg/kg pyridazinone, 30 mg/kg quinazoline, alone or combined; for median time until tumor progression: progression = TV change >73%, treatment up to 65 days, CD-1 nude mice
Procedure: Background: The human U87-MG glioblastoma model is an autocrine HGF/c-Met expressing tumor model with an activated c-Met pathway. This model carries a mutation of PTEN, a negative regulator of the PI3K signaling.
(§1) Method: Female CD-1 nude mice (6-8 weeks old) where subcutaneously injected with human U87-MG tumor cells and were divided into treatment groups (8 animals per group) after the tumors were established. Respective groups were administered orally with the 3-(1-{3-[5-(1-Methyl-piperidin-4-ylmethoxy)-pyrimidin-2-yl]-benzyl}-6-oxo-1,6-dihydro-pyridazin-3-yl)-benzonitrile hydrochloride hydrate (100 mg/kg) or 4-[(S)-2-azetidin-1-yl-1-(4-chloro-3-trifluoromethyl-phenyl)-ethylamino]-quinazoline-8-carboxylic acid amide (30 mg/kg) daily in monotherapy or in combination until tumors progressed or until treatment period of 65 days. At day 12, the day of vehicle group termination, median tumor volume (TV) change in % were calculated. Statistical analysis has been done with two way-RM ANOVA. Median time until tumor progression under treatment has been calculated at the end of the study. Tumor progression is defined as tumor volume change >73%.

[1] = tested on: human NCI-H441 tumor cells; assay: Human NCI-H441 lung xenograft model; settings: oral daily; for median tumor volume change: day 21, female CD-1 nude mice, s.c. NCI-H441, 100 mg/kg pyridazinone, 30 mg/kg quinazoline, alone or combined; for median time until tumor progression: progression = TV change >73%, treatment up to 78 days, CD-1 nude mice
Procedure: Background: The human NCI-H441 lung model is an c-Met overexpressing tumor model with an activated c-Met pathway. This model carries a kras mutation. Literature data have shown phosphorylation of S6K is present in this tumor model.
as §1, with “week” for “weeks”, “NCI-H441” for “U87-MG”, “78” for “65”, “21,” for “12,”, “volume” for “volume (TV)”

Compound	median tumor volume change (human H596 tumor cells) [%]	median time until tumor progression (human H596 tumor cells) [days]	median tumor volume (TV) change (human U87-MG tumor cells) [%]	median time until tumor progression (human U87-MG tumor cells) [days]	median tumor volume change [1] [%]	median time until tumor progression [1] [days]
CN1CCC(COc2cnc(-c3cccc(Cn4nc(-c5cccc(C#N)c5)ccc4=O)c3)nc2)CC1.Cl.O [3-(1-{3-[5-(1-Methyl-piperidin-4-ylmethoxy)-pyrimidin-2-yl]-benzyl}-6-oxo-1,6-dihydro-pyridazin-3-yl)-benzonitrile hydrochloride hydrate]	35	24	−71	58	−1	67
NC(=O)c1cccc2c(N[C@H](CN3CCC3)c3ccc(Cl)c(C(F)(F)F)c3)ncnc12 [4-[(S)-2-Azetidin-1-yl-1-(4-chloro-3-trifluoromethyl-phenyl)-ethylamino]-quinazoline-8-carboxylic acid amide]	36	24	51	14	138	14
